Measured values reported in patent publication US20250312352A1, “GLP-1R MODULATING COMPOUNDS” (Gilead Sciences, Inc., priority 2021, published 2025).

The molecules below were run against T1, GLP-1R (Homo sapiens, UniProt P43220) (assay: GLP-1R activation cAMP assay (Assay 1 or Assay 2)). Conditions: cAMP increase in CHO cells stably expressing GLP-1R; compounds run on one of the two cAMP assays.
T1 construct: host or cells: CHO cells
Assay type: cell-based
How it was run: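 CHO cells stably expressing human GLP-1R were incubated 1 h in HBSS/20 mM HEPES/0.1% BSA, then exposed to 10-point agonist dilutions for 30 min at 37 °C. cAMP increase was measured with an HTRF Gs dynamic kit; EC50 from sigmoidal fit of response versus log concentration.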

T1 sequence (P43220 24-463): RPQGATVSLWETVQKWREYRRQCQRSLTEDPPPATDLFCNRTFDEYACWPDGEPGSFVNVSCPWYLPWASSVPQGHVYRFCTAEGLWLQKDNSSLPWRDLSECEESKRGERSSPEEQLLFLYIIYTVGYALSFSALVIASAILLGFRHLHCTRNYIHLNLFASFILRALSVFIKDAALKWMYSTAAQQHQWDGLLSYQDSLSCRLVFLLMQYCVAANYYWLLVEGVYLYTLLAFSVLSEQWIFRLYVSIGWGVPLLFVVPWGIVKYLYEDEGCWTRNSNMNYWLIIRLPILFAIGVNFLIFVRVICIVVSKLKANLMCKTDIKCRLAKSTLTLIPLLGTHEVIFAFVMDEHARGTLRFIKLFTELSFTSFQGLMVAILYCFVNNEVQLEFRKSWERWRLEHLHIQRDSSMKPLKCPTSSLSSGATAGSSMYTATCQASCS

| EC50 [nM] | Molecule |
| --- | --- |
| 0.7 | COCCn1c(Cc2cc(F)c(-c3cccc(OCc4ccc(-c5cnn(C6CC6)c5)cc4F)n3)cc2F)nc2ccc(C(=O)O)cc21 [Example 225, 2-(4-(6-((4-(1-cyclopropyl-1H-pyrazol-4-yl)-2-fluorobenzyl)oxy)pyridin-2-yl)-2,5-difluorobenzyl)-1-(2-methoxyethyl)-1H-benzo[d]imidazole-6-carboxylic acid] |
| 0.123 | O=C(O)c1cc(F)c2nc(Cc3cc(F)c(-c4cccc(OCc5ncc(C(F)F)s5)n4)cc3F)n(C[C@@H]3CCO3)c2c1 [Example 324, (S)-2-(4-(6-((5-(difluoromethyl)thiazol-2-yl)methoxy)pyridin-2-yl)-2,5-difluorobenzyl)-4-fluoro-1-(oxetan-2-ylmethyl)-1H-benzo[d]imidazole-6-carboxylic acid] |
| 0.433 | CNC(=O)c1cc(Cl)c(COc2cccc(-c3cc(F)c(Cc4nc5ccc(C(=O)O)cc5n4C[C@@H]4CCO4)cc3F)c2)cn1 [Example 444, (S)-2-((3′-((4-chloro-6-(methylcarbamoyl)pyridin-3-yl)methoxy)-2,5-difluoro-[1,1′-biphenyl]-4-yl)methyl)-1-(oxetan-2-ylmethyl)-1H-benzo[d]imidazole-6-carboxylic acid] |
| 1.1 | Cn1nc(COc2cccc(-c3cc(F)c(Cc4nc5ccc(C(=O)O)cc5n4C[C@@H]4CCO4)cc3F)n2)c2c1CCC2 [Example 73, (S)-2-(2,5-difluoro-4-(6-((1-methyl-1,4,5,6-tetrahydrocyclopenta[c]pyrazol-3-yl)methoxy)pyridin-2-yl)benzyl)-1-(oxetan-2-ylmethyl)-1H-benzo[d]imidazole-6-carboxylic acid] |
| 0.27 | COc1nnc(COc2cccc(-c3cc(F)c(Cc4nc5ccc(C(=O)O)cc5n4C[C@@H]4CCO4)cc3F)n2)s1 [Example 1, 2-[[2,5-difluoro-4-[6-[(5-methoxy-1,3,4-thiadiazol-2-yl)methoxy]-2-pyridyl]phenyl]methyl]-3-[[(2S)-oxetan-2-yl]methyl]benzimidazole-5-carboxylic acid] |
| 4.59 | Cc1ncc(COc2cccc(-c3cc(F)c(Cc4nc5ccc(C(=O)O)cc5n4C[C@@H]4CCO4)cc3F)n2)n1C [Example 179, (S)-2-(4-(6-((1,2-dimethyl-1H-imidazol-5-yl)methoxy)pyridin-2-yl)-2,5-difluorobenzyl)-1-(oxetan-2-ylmethyl)-1H-benzo[d]imidazole-6-carboxylic acid] |
| 0.093 | CC1(C)COC[C@H]1n1c(Cc2cc(F)c(-c3cccc(OCc4nnc(C(F)F)s4)n3)cc2F)nc2ccc(C(=O)O)cc21 [Example 432, (S)-2-(4-(6-((5-(difluoromethyl)-1,3,4-thiadiazol-2-yl)methoxy)pyridin-2-yl)-2,5-difluorobenzyl)-1-(4,4-dimethyltetrahydrofuran-3-yl)-1H-benzo[d]imidazole-6-carboxylic acid] |
| 1.27 | O=C(O)c1ccc2nc(Cc3cc(F)c(-c4cccc(OCc5ncc(-c6ccc(C(F)(F)F)cc6)s5)n4)cc3F)n(C[C@H]3CCO3)c2c1 [Example 382, (R)-2-(2,5-difluoro-4-(6-((5-(4-(trifluoromethyl)phenyl)thiazol-2-yl)methoxy)pyridin-2-yl)benzyl)-1-(oxetan-2-ylmethyl)-1H-benzo[d]imidazole-6-carboxylic acid] |
| 0.043 | COc1nnc(COc2nc(-c3cc(F)c(Cc4nc5ccc(C(=O)O)cc5n4[C@@H]4COCC4(C)C)cc3F)ccc2F)s1 [Example 339, (S)-2-(2,5-difluoro-4-(5-fluoro-6-((5-methoxy-1,3,4-thiadiazol-2-yl)methoxy)pyridin-2-yl)benzyl)-1-(4,4-dimethyltetrahydrofuran-3-yl)-1H-benzo[d]imidazole-6-carboxylic acid] |
| 13.6 | Cn1cncc1-c1cnc(COc2cccc(-c3cc(F)c(Cc4nc5ccc(C(=O)O)cc5n4C[C@@H]4CCO4)cc3F)n2)s1 [Example 102, (S)-2-(2,5-difluoro-4-(6-((5-(1-methyl-1H-imidazol-5-yl)thiazol-2-yl)methoxy)pyridin-2-yl)benzyl)-1-(oxetan-2-ylmethyl)-1H-benzo[d]imidazole-6-carboxylic acid] |
| 0.14 | O=C(O)c1ccc2nc(Cc3cc(F)c(-c4cccc(OCc5ncc(-c6cnccn6)s5)n4)cc3F)n(C[C@@H]3CCO3)c2c1 [Example 106, (S)-2-(2,5-difluoro-4-(6-((5-(pyrazin-2-yl)thiazol-2-yl)methoxy)pyridin-2-yl)benzyl)-1-(oxetan-2-ylmethyl)-1H-benzo[d]imidazole-6-carboxylic acid] |
| 0.24 | O=C(O)c1ccc2nc(Cc3cc(F)c(-c4cccc(OCc5ccc(C#Cc6cncs6)cc5F)n4)cc3F)n(C[C@@H]3CCO3)c2c1 [Example 137, (S)-2-(2,5-difluoro-4-(6-((2-fluoro-4-(thiazol-5-ylethynyl)benzyl)oxy)pyridin-2-yl)benzyl)-1-(oxetan-2-ylmethyl)-1H-benzo[d]imidazole-6-carboxylic acid] |
| 0.032 | O=C(O)c1cc(F)c2nc(Cc3cc(F)c(-c4ccc(F)c(OCc5ncc(C(F)(F)F)s5)n4)cc3F)n(C[C@@H]3CCO3)c2c1 [Example 313, (S)-2-(2,5-difluoro-4-(5-fluoro-6-((5-(trifluoromethyl)thiazol-2-yl)methoxy)pyridin-2-yl)benzyl)-4-fluoro-1-(oxetan-2-ylmethyl)-1H-benzo[d]imidazole-6-carboxylic acid] |
| 7 | Cc1nc(COc2cccc(-c3cc(F)c(Cc4nc5ccc(C(=O)O)cc5n4C[C@@H]4CCO4)cc3F)n2)no1 [Example 17, (S)-2-(2,5-difluoro-4-(6-((5-methyl-1,2,4-oxadiazol-3-yl)methoxy)pyridin-2-yl)benzyl)-1-(oxetan-2-ylmethyl)-1H-benzo[d]imidazole-6-carboxylic acid] |
| 0.451 | O=C(O)c1ccc2nc(Cc3cc(F)c(-c4cccc(OCc5ncc(C#CC6(C(F)F)CC6)s5)n4)cc3F)n(C[C@@H]3CCO3)c2c1 [Example 326, (S)-2-(4-(6-((5-((1-(difluoromethyl)cyclopropyl)ethynyl)thiazol-2-yl)methoxy)pyridin-2-yl)-2,5-difluorobenzyl)-1-(oxetan-2-ylmethyl)-1H-benzo[d]imidazole-6-carboxylic acid] |
| 0.2 | O=C(O)c1ccc2nc(Cc3cc(F)c(-c4cccc(OCc5nc6ccccc6s5)n4)cc3F)n(C[C@@H]3CCO3)c2c1 [Example 34, (S)-2-(4-(6-(benzo[d]thiazol-2-ylmethoxy)pyridin-2-yl)-2,5-difluorobenzyl)-1-(oxetan-2-ylmethyl)-1H-benzo[d]imidazole-6-carboxylic acid] |
| 0.91 | O=C(O)c1ccc2nc(Cc3cc(F)c(-c4cccc(OCc5cnc(C(=O)NC6(C(F)F)CC6)cc5Cl)n4)cc3F)n(C[C@@H]3CCO3)c2c1 [Example 186, (S)-2-(4-(6-((4-chloro-6-((1-(difluoromethyl)cyclopropyl)carbamoyl)pyridin-3-yl)methoxy)pyridin-2-yl)-2,5-difluorobenzyl)-1-(oxetan-2-ylmethyl)-1H-benzo[d]imidazole-6-carboxylic acid] |
| 0.537 | CC(C)(C)C#Cc1cnc(COc2cccc(-c3cc(F)c(Cc4nc5ccc(C(=O)O)cc5n4C[C@@H]4CCO4)cc3F)n2)s1 [Example 320, (S)-2-(4-(6-((5-(3,3-dimethylbut-1-yn-1-yl)thiazol-2-yl)methoxy)pyridin-2-yl)-2,5-difluorobenzyl)-1-(oxetan-2-ylmethyl)-1H-benzo[d]imidazole-6-carboxylic acid] |
| 0.31 | O=C(O)c1ccc2nc(Cc3cc(F)c(-c4cccc(OCc5ncc(-c6ccccn6)s5)n4)cc3F)n(C[C@@H]3CCO3)c2c1 [Example 107, (S)-2-(2,5-difluoro-4-(6-((5-(pyridin-2-yl)thiazol-2-yl)methoxy)pyridin-2-yl)benzyl)-1-(oxetan-2-ylmethyl)-1H-benzo[d]imidazole-6-carboxylic acid] |
| 2.65 | O=C(O)c1ccc2nc(Cc3cc(F)c(-c4cccc(OCc5ccc(C(F)(F)F)s5)n4)cc3F)n(C[C@@H]3CCO3)c2c1 [Example 123, (S)-2-(2,5-difluoro-4-(6-((5-(trifluoromethyl)thiophen-2-yl)methoxy)pyridin-2-yl)benzyl)-1-(oxetan-2-ylmethyl)-1H-benzo[d]imidazole-6-carboxylic acid] |
| 0.164 | CNC(=O)c1cc(Cl)c(COc2cccc(-c3cc(F)c(Cc4nc5c(F)cc(C(=O)O)cc5n4[C@@H]4COCC4(C)C)cc3F)n2)cn1 [Example 365, (S)-2-(4-(6-((4-chloro-6-(methylcarbamoyl)pyridin-3-yl)methoxy)pyridin-2-yl)-2,5-difluorobenzyl)-1-(4,4-dimethyltetrahydrofuran-3-yl)-4-fluoro-1H-benzo[d]imidazole-6-carboxylic acid] |
| 0.52 | Cn1cc(C#Cc2cnc(COc3cccc(-c4cc(F)c(Cc5nc6ccc(C(=O)O)cc6n5C[C@@H]5CCO5)cc4F)n3)nc2)cn1 [Example 154, (S)-2-(2,5-difluoro-4-(6-((5-((1-methyl-1H-pyrazol-4-yl)ethynyl)pyrimidin-2-yl)methoxy)pyridin-2-yl)benzyl)-1-(oxetan-2-ylmethyl)-1H-benzo[d]imidazole-6-carboxylic acid] |
| 23.2 | NC(=O)c1ccc(COc2cccc(-c3ccc(Cc4nc5ccc(C(=O)O)cc5n4C[C@@H]4CCO4)cc3F)n2)cn1 [Example 173, (S)-2-(4-(6-((6-carbamoylpyridin-3-yl)methoxy)pyridin-2-yl)-3-fluorobenzyl)-1-(oxetan-2-ylmethyl)-1H-benzo[d]imidazole-6-carboxylic acid] |
| 2.94 | NC(=O)c1ccc(COc2cccc(-c3cc(F)c(Cc4nc5ccc(C(=O)O)cc5n4C[C@@H]4CCO4)cc3F)n2)o1 [Example 171, (S)-2-(4-(6-((5-carbamoylfuran-2-yl)methoxy)pyridin-2-yl)-2,5-difluorobenzyl)-1-(oxetan-2-ylmethyl)-1H-benzo[d]imidazole-6-carboxylic acid] |

| Molecule | EC50 [nM] |
| --- | --- |
| (S)-1-(oxetan-2-ylmethyl)-2-(2,3,6-trifluoro-4-(6-((4-(trifluoromethyl)thiazol-2-yl)methoxy)pyridin-2-yl)benzyl)-1H-benzo[d]imidazole-6-carboxylic acid [Example 376] | 0.153 |
